Results: patent US20220142948A1, “COMPOSITIONS AND METHODS FOR MODULATING METABOLIC REGULATORS OF T CELL PATHOGENICITY” (The Broad Institute, Inc., priority 2019, published 2022)
“Also recorded” adds a separate entry of the source.

How the values were obtained:
[1] = system: Th17n, Th17p and iTreg cells; test: Population (bulk) RNA-seq of in vitro differentiated T cells; format: cell-based, mouse
Method: (§1) RNA-seq. For population (bulk) RNA-seq, in vitro differentiated T-cells were sorted for live cells and lysed with RLT Plus buffer and RNA was extracted using the RNeasy Plus Mini Kit (Qiagen). Full-length RNA-seq libraries were prepared as previously described and paired-end sequenced (75 bp×2) with a 150 cycle Nextseq 500 high output V2 kit.
Bulk RNA-Seq and SMART-Seq2 analysis. Applicants aligned single-cell SMART-Seq2 libraries with Bowtie2, quantified TPM gene expression with RSEM, and performed QC as Applicants described in detail in a previous publication^51. This computational pipeline is a massively revised and updated version of the one originally used to analyze these libraries^19. Batch effects and other nuisance factors were normalized with a model chosen empirically with SCONE ^52. Bulk RNA-Seq were processed with a modified variant of the same pipeline. In the absence of UMIs, differentially expressed genes were called through a linear model fitted to TPM values with the limma R package and with a mean-variance trend added to the empirical bayes prior^53,54.
as §1
Bulk RNA libraries from DFMO- or vehicle-treated Th17p, Th17n, or Treg were studied with 3 replicates per condition for a total of 18 libraries as shown in FIG. 36A. Genes that are associated with a Th17 or Treg programs (orange and purple, respectively, in FIG. 36B-C) were determined by differential expression test between bulk RNA libraries of (vehicle-treated) Th17n and Th17p on one side and Treg on the other with BH-adjusted p<0.05 and absolute value of log 2 fold-change of at least 1.5. Genes associated with the Th17p or Th17n program (magenta and green, respectively, in FIG. 40A) were determined by differential expression test between bulk RNA libraries of (vehicle-treated) Th17p vs. Th17n with the same thresholds. The PCA shown in FIG. 36A was computed on the set of 3,414 that were differentially associated with Th17, Treg, Th17p, or Th17n programs by the aforementioned criteria to focus it on the subspace of the transcriptome relevant to Th17 pathogenicity phenotypes.
Applicants aligned single-cell SMART-Seq libraries with Bowtie2, quantified TPM gene expression with RSEM, and performed QC as Applicants described in detail in a previous publication (Fletcher et al., 2017). This computational pipeline is a massively revised and updated version of the one originally used to analyze these libraries (Gaublomme et al., 2015). Batch effects and other nuisance factors were normalized with a model chosen empirically with SCONE (Cole et al., 2019). Bulk RNA-Seq were processed with a modified variant of the same pipeline.
For the Smart-Seq libraries, due the absence of UMIs in the dataset, differentially expressed genes were called through a linear model _tted to TPM values with the limma R package and with a mean-variance trend added to the empirical Bayes prior (Ritchie et al., 2015). For the bulk RNA libraries, differentially expressed genes were called with limma-trend or limma-voom (Law et al., 2014) depending on the variance of library sizes, as recommended in the limma package manual (Smyth, 2019).

ODC = target: T1, ODC (Homo sapiens, UniProt P11926); details: cited from earlier work
T1 sequence (P11926 1-461): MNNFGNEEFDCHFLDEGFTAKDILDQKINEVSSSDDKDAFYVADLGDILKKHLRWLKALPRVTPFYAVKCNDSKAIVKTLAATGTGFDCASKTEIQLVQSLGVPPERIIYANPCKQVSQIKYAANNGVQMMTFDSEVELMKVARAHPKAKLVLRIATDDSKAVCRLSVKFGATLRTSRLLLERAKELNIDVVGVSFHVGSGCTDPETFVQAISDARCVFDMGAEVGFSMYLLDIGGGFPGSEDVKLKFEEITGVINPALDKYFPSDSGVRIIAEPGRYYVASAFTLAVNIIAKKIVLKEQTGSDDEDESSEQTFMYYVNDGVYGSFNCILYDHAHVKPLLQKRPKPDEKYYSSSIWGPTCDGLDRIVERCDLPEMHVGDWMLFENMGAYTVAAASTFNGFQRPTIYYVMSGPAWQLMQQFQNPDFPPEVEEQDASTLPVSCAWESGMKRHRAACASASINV

[2] = system: PGAM in Th17n and Th17p cells; test: 13C-glucose carbon tracing by LC/MS; format: cell-based, mouse
Method: For carbon tracing experiments Th17 cells were differentiated as described. Thereafter, cells were washed and cultured in media supplemented with 8 mM [U-13C]-glucose for 15 min or 3 hrs.
Let |Ci| be the number of carbon atoms in metabolite i, and let xc,i,j be the measured signal of metabolite i in sample j (subsequent to all normalization and QC procedures) in which there are exactly c 13C atoms. The comparisons of carbon flows are based on the statistic yi,j=(Σt=0^|C^i^|t·xt,i,j)/(|Ci|·Σt=0^|C^i^|xt,i,j)
which measures the 13C ratio of the total carbon contents for metabolite i in sample j.
To find metabolites with differential 13C relative abundance, Applicants computed the ratio yi,j of 13C out of the total carbon contents for each metabolite i in sample j. Let |Ci| be the number of carbon atoms in metabolite i, and let xc,i,j be the measured signal of metabolite i in sample j (subsequent to all normalization and QC procedures) in which there are exactly c 13C atoms.

Molecule: NCCC[C@](N)(C(=O)O)C(F)F [DFMO, 2-(difluoromethyl)ornithine]
- expression of chromatin modifiers / chromatin associated genes [1]: alters chromatin associated genes; also recorded: significant changes
- genes shared / expressed comparably between Th17 and Treg cells [1]: do not change; also recorded: no significant effect
- transcriptome shift (principal component analysis) ([1]; Th17 and iTreg cells): shift Th17 cells to Treg-like transcriptome; also recorded: shift the cells towards Treg gene expression; also recorded: clearly driving cells towards Treg cells; also recorded: driving Th17 cells towards Treg cell profiles; also recorded: promotes Treg-like transcriptome
- Foxp3 ([1]; Th17 cells): upregulated
- Il17a ([1]; Th17 cells): significantly suppressed
- Il17f ([1]; Th17 cells): significantly suppressed
- Il23r ([1]; Th17 cells): significantly suppressed
- Th17 specific genes / transcriptome ([1]; Th17n and Th17p cells): reducing canonical Th17 genes; also recorded: shift Th17 specific genes down; also recorded: suppressed
- Treg specific genes / transcriptome ([1]; Th17n and Th17p cells): shift Treg specific genes up; also recorded: promoted
- proinflammatory state genes (upregulated in Th17p) ([1]; Th17p cells): downregulation
- regulatory state genes (upregulated in Th17n) ([1]; Th17p cells): significant upregulation
- uptake of exogenous putrescine (ODC; cells treated in vivo with DFMO): significantly increase
- ODC activity (ODC; in vivo): irreversibly inhibit

Molecule: epigallocatechin-3-gallate [EGCG]
- 13C contents of 2PG ([2]; Th17n and Th17p): decrease; also recorded: disturbs
- 13C ratio of 2PG after EGCG ([2]; Th17p): 33%
- CASP1 ([1]; Th17n): up-regulated; also recorded: upregulating
- IKZF3 ([1]; Th17n): downregulated; also recorded: downregulating
- IL7R ([1]; Th17n): up-regulated; also recorded: upregulating
- IL22 ([1]; Th17n): up-regulated; also recorded: upregulating
- pro-pathogenic transcriptional program / module ([1]; Th17n cells): promotes the pro-pathogenic module; also recorded: clearly strengthened
- pro-regulatory module ([1]; Th17n cells): suppresses the pro-regulatory module
- position on PC1 (pathogenicity phenotype) ([1]; bulk RNA-Seq of d1 Th17n and Th17p cells): toward a more pathogenic one; also recorded: shifted cell profiles towards a more pathogenic state
